# Measured values taken from CN101260112A, “含噻吩并[3.2-c]吡啶的乙酰肼衍生物及其制备方法和用途” (Tianjin Institute of Pharmaceutical Research Co Ltd, priority 2008, dated 2008).
# Test system: ADP-induced platelet aggregation (ADP诱导的血小板聚集)
# Experiment: Effect of compounds of formula I on ADP-induced platelet aggregation (rats dosed orally, turbidimetric method)
# Type: in vivo
# Conditions: male Wistar rat, 10 mg/kg oral gavage, blood taken 2 h after dosing, inducer ADP (final concentration 5 μM), turbidimetry, 37℃; for inhibition at 10 mg/kg: Platelet, vs control, read-out: inhibition rate; for maximum aggregation: control 54.8±5.8
SMILES,inhibition at 10 mg/kg,maximum aggregation
"O=C(NN=Cc1ccccc1O)C(c1cccc(F)c1)N1CCc2sccc2C1 (stereo not drawn) [化合物5, α,α-[(3-氟苯基)-(4,5,6,7-四氢噻吩并[3,2-c]吡啶-5-基)]-N′-[(2-羟基苯基)甲叉基]乙酰肼]",33.5%,38.7±10.6
"O=C(NN=C1CCCc2ccccc21)C(c1ccc(Cl)cc1)N1CCc2sccc2C1 (stereo not drawn) [化合物12, α,α-[(4-氯苯基)-(4,5,6,7-四氢噻吩并[3,2-c]吡啶-5-基)]-N′-(α-四氢萘叉基)乙酰肼]",35.3%,36.2±7.4
"Cc1ccc(C=NNC(=O)C(c2ccc(Cl)cc2)N2CCc3sccc3C2)cc1 (stereo not drawn) [化合物4, α,α-[(4-氯苯基)-(4,5,6,7-四氢噻吩并[3,2-c]吡啶-5-基)]-N′-[(4-甲基苯基)甲叉基]乙酰肼]",34.3%,36.0±6.9
"O=C(NN=C1CCCCC1)C(c1cccc(Cl)c1)N1CCc2sccc2C1 (stereo not drawn) [化合物11, α,α-[(3-氯苯基)-(4,5,6,7-四氢噻吩并[3,2-c]吡啶-5-基)]-N′-(环己叉基)乙酰肼]",43.1%,31.2±12.1
"O=C(NN=Cc1ccccc1Cl)C(c1cccc(Cl)c1)N1CCc2sccc2C1 (stereo not drawn) [化合物3, α,α-[(3-氯苯基)-(4,5,6,7-四氢噻吩并[3,2-c]吡啶-5-基)]-N′-[(2-氯苯基)甲叉基]乙酰肼]",18.2%,44.8±11.1
"O=C(NN=Cc1ccco1)C(c1cccc(F)c1)N1CCc2sccc2C1 (stereo not drawn) [化合物9, α,α-[(3-氟苯基)-(4,5,6,7-四氢噻吩并[3,2-c]吡啶-5-基)]-N′-[(呋喃-2-基)甲叉基]乙酰肼]",28.6%,41.0±13.4
"O=C(NN=Cc1ccc(-c2ccc(Cl)cc2)o1)C(c1cccc(Cl)c1)N1CCc2sccc2C1 (stereo not drawn) [化合物8, α,α-[(3-氯苯基)-(4,5,6,7-四氢噻吩并[3,2-c]吡啶-5-基)]-N′-[[5-(4-氯苯)呋喃-2-基]甲叉基]乙酰肼]",64.4%,38.7±10.9
"O=C(NN=Cc1cccc([N+](=O)[O-])c1)C(c1ccc(Cl)c(Cl)c1)N1CCc2sccc2C1 (stereo not drawn) [化合物7, α,α-[(3,4-二氯苯基)-(4,5,6,7-四氢噻吩并[3,2-c]吡啶-5-基)]-N′-[(3-硝基苯基)甲叉基]乙酰肼]",23.3%,36.0±9.3
"COc1ccc(C=NNC(=O)C(c2cccc(F)c2)N2CCc3sccc3C2)cc1 (stereo not drawn) [化合物6, α,α-[(3-氟苯基)-(4,5,6,7-四氢噻吩并[3,2-c]吡啶-5-基)]-N′-[(4-甲氧基苯基)甲叉基]乙酰肼]",32.5%,33.9±12.3
"CC(C)=NNC(=O)C(c1ccc(Cl)cc1)N1CCc2sccc2C1 (stereo not drawn) [化合物2, α,α-[(4-氯苯基)-(4,5,6,7-四氢噻吩并[3,2-c]吡啶-5-基)]-N′-(二甲基甲叉基)乙酰肼]",58.8%,22.6±3.9
"CCCCc1nc(Cl)c(C=NNC(=O)C(c2cccc(Cl)c2)N2CCc3sccc3C2)[nH]1 (stereo not drawn) [化合物10, α,α-[(3-氯苯基)-(4,5,6,7-四氢噻吩并[3,2-c]吡啶-5-基)]-N′-[[(2-正丁基-4-氯-咪唑-5-基)甲叉基]乙酰肼]",39%,42.9±12.6
"NNC(=O)C(c1ccc(F)cc1)N1CCc2sccc2C1 (stereo not drawn) [化合物1, α,α-[(4-氟苯基)-(4,5,6,7-四氢噻吩并[3,2-c]吡啶-5-基)]乙酰肼]",48.2%,28.4±8.1
"COC(=O)[C@H](c1ccccc1Cl)N1CCc2sccc2C1 [硫酸氯吡格雷, reference compound]",,9.1±3.5
